Results taken from PMC7351026, “Serum Half-Lives for Short- and Long-Chain Perfluoroalkyl Acids after Ceasing Exposure from Drinking Water Contaminated by Firefighting Foam” (Environmental Health Perspectives, 2020).

Assay: PFAS levels in serum samples of airport employees (LC/MS/MS)
Settings: for Serum level in the first samples, median (range) / Relative composition of PFAS in serum, molar concentration basis / Relative composition of PFAS in serum, weight basis / Serum concentration, molar basis / Serum concentration, weight basis: all 26 airport employees; for Relative composition of PFAS in serum, molar concentration basis / Relative composition of PFAS in serum, weight basis: first serum samples; for Serum concentration, molar basis / Serum concentration, weight basis: median of first serum samples
Excerpt: All 26 employees at the airport were invited for a blood sampling between 11 and 14 September 2018 (i.e., within 11 to 14 d after the termination of contaminated drinking-water exposure). Information on age, home address, employment history, working tasks, and sick leave and vacation days in August and September were collected by questionnaire. In addition, data on the number of glasses of water consumed per day, local fish consumption, and history of blood donation and medication were collected. For female employees, questions about menstruation, pregnancy, and duration of breast-feeding were asked.
The PFAS analysis in serum from the first sampling was immediately performed and personal results were reported to the employees. […] These 17 employees submitted four rounds of blood and first morning urine samples in parallel, at 1-month intervals. In total, there were five rounds of serum sampling (started from September) and four rounds of urine sampling (from October). For modeling of elimination, all samples were reanalyzed in a single batch. We obtained 83 serum samples with a median count of 5 (range: 4–5) samples per employee, and 59 urine samples with median of 4 (range: 1–4) samples per employee. Only one employee provided a single urine sample. The study was approved by the Regional Ethical Review Board in Lund, Sweden. All employees provided written informed consent.
Venous whole blood samples were obtained and were centrifuged for 10 min at 1,500×g at room temperature to isolate the serum on site. The serum samples were collected in 6-mL BD Vacutainer® Plus plastic serum tubes without gel (BD). Urine samples were collected in 13-mL polypropylene screw cap tubes (Sarstedt). Serum and urine samples were frozen at −20°C after sampling and transported to Lund using cold chain logistics. Serum and urine samples were stored at −80°C and −20°C , respectively, before analysis.
The serum samples, QC samples, and chemical blanks were prepared in 96-well plates with 1.5-mL flat-bottom glass vials (Biotech solutions). Serum samples were thawed for 1–2 h and mixed on a vortex shaker for approximately 10 s two times. Once after all samples were thawed and a second time before pipetting the serum to the plate. Before pipetting, the tip was pre-wetted several times, drawing a volume into the tip and dispensing it back into the tube. Sample preparation procedures for serum samples consisted of 25μL serum mixed with 25μL water, 25μL methanol, 25μL isotopically labeled internal standards in 50% acetonitrile (see Table S1), and 100μL acetonitrile. Thereafter, samples were mixed vigorous by shaking for 30 min and centrifuged at 2,600×g for 10 min at room temperature. The supernatant ( 0.2mL ) was transferred to 96-well plates with 0.5-mL conical glass vials (MicroLiter Analytical Supplies) and again centrifuged at 3,000×g for 10 min before analysis. The QC samples and chemical blanks were prepared following the same procedure as the serum samples. The calibration standards were prepared in FBS the same way as the samples, except for the addition of diluted reference standards of all analyzed compounds in 25μL of the methanol solution.
Aliquots of 4μL of the sample were analyzed using LC/MS/MS. For the analysis, a C18 column ( 4μm , 2.1mm i.d.×50mm , Genesis Lightning) was used prior to the injector to filter the mobile phases. The analytical column was an Aquity BEH ( 1.7μm , 2.1mm i.d.×100mm Waters). The mobile phases (A and B) were A: 5 mM ammonium acetate in water:methanol (50:50); and B: methanol. The mobile phase was kept at 0% B for 2.5 min after injection. A gradient was then applied over 11 min to 90% B, where it was then kept for 1.5 min. The column was then conditioned at 0% B for 2 min.

[1] = 1st sampling (September 2018), count 17
[2] = 2nd sampling (October 2018), count 17
[3] = 3rd sampling (November, 2018), count 17
[4] = 4th sampling (December 2018), count 16
[5] = 5th sampling (January 2019), count 16
[6] = employees participated in first blood sampling and repeated blood and urine sampling, N=17
[7] = employees participated in first blood sampling only, N=9, 11-14 d after end of exposure

SMILES	Serum PFAS level, 25 percentile [1]	Serum PFAS level, 75 percentile [1]	Serum PFAS level, Max [1]	Serum PFAS level, Median [1]	Serum PFAS level, Min [1]	Serum PFAS level, 25 percentile [2]	Serum PFAS level, 75 percentile [2]	Serum PFAS level, Max [2]	Serum PFAS level, Median [2]	Serum PFAS level, Min [2]	Serum PFAS level, 25 percentile [3]	Serum PFAS level, 75 percentile [3]	Serum PFAS level, Max [3]	Serum PFAS level, Median [3]	Serum PFAS level, Min [3]	Serum PFAS level, 25 percentile [4]	Serum PFAS level, 75 percentile [4]	Serum PFAS level, Max [4]	Serum PFAS level, Median [4]	Serum PFAS level, Min [4]	other results
O=C(O)C(F)(F)C(F)(F)C(F)(F)C(F)(F)C(F)(F)C(F)(F)F [PFHpA, perfluoroheptanoic acid]	0.45	1.1	2.2	0.53	0.20	0.18	0.83	2.0	0.33	0.07	0.09	0.75	2.0	0.27	0.08	0.09	0.72	1.8	0.15	0.05	Serum PFAS level, 25 percentile [5]: < LOD; Serum PFAS level, 75 percentile [5]: 0.50; Serum PFAS level, Max [5]: 1.4; Serum PFAS level, Median [5]: 0.10; Serum PFAS level, Min [5]: < LOD; Serum level in the first samples, median (range): 0.46 (0.07–2.2) ng/mL; PFAS in first serum sample, median (range) [6]: 0.53 (0.20–2.2) ng/mL; PFAS in first serum sample, median (range) [7]: 0.17 (0.07–1.3) ng/mL; Initial serum PFAS level, max (females (N=7)): 2.2 ng/mL; Initial serum PFAS level, median (females (N=7)): 0.46 ng/mL; Initial serum PFAS level, min (females (N=7)): 0.08 ng/mL; Relative composition of PFAS in serum, molar concentration basis: 0.5%; Relative composition of PFAS in serum, weight basis: 0.4%; Initial serum PFAS level, Max (males (N=19)): 2.0 ng/mL; Initial serum PFAS level, Min (males (N=19)): 0.07 ng/mL; Initial serum PFAS level, median (males (N=19)): 0.45 ng/mL; Serum concentration, molar basis: 0.0013; Serum concentration, weight basis: 0.46
O=S(=O)(O)C(F)(F)C(F)(F)C(F)(F)C(F)(F)C(F)(F)C(F)(F)C(F)(F)F [PFHpS, perfluoroheptane sulfonic acid]	0.96	2.5	6.2	1.6	0.49	0.95	2.1	6.1	1.5	0.45	0.94	1.9	6.3	1.4	0.47	0.93	2.1	5.9	1.5	0.35	Serum PFAS level, 25 percentile [5]: 1.1; Serum PFAS level, 75 percentile [5]: 2.2; Serum PFAS level, Max [5]: 6.2; Serum PFAS level, Median [5]: 1.5; Serum PFAS level, Min [5]: 0.45; Serum level in the first samples, median (range): 1.3 (0.28–6.2) ng/mL; PFAS in first serum sample, median (range) [6]: 1.6 (0.49–6.2) ng/mL; PFAS in first serum sample, median (range) [7]: 0.97 (0.28–1.9) ng/mL; Initial serum PFAS level, max (females (N=7)): 2.2 ng/mL; Initial serum PFAS level, median (females (N=7)): 1.1 ng/mL; Initial serum PFAS level, min (females (N=7)): 0.49 ng/mL; Relative composition of PFAS in serum, molar concentration basis: 1.1%; Relative composition of PFAS in serum, weight basis: 1.2%; Initial serum PFAS level, Max (males (N=19)): 6.2 ng/mL; Initial serum PFAS level, Min (males (N=19)): 0.28 ng/mL; Initial serum PFAS level, median (males (N=19)): 1.4 ng/mL; Serum concentration, molar basis: 0.0029; Serum concentration, weight basis: 1.3
O=C(O)C(F)(F)C(F)(F)C(F)(F)C(F)(F)C(F)(F)F [PFHxA, perfluorohexanoic acid]	0.24	0.48	0.92	0.37	0.16	0.26	0.51	1.2	0.31	0.14	0.27	0.56	1.4	0.34	0.13	0.22	0.46	0.87	0.30	0.08	Serum PFAS level, 25 percentile [5]: 0.21; Serum PFAS level, 75 percentile [5]: 0.52; Serum PFAS level, Max [5]: 1.2; Serum PFAS level, Median [5]: 0.33; Serum PFAS level, Min [5]: 0.11; Serum level in the first samples, median (range): 0.38 (0.16–1.1) ng/mL; PFAS in first serum sample, median (range) [6]: 0.37 (0.16–0.92) ng/mL; PFAS in first serum sample, median (range) [7]: 0.38 (0.23–1.1) ng/mL; Initial serum PFAS level, max (females (N=7)): 0.54 ng/mL; Initial serum PFAS level, median (females (N=7)): 0.24 ng/mL; Initial serum PFAS level, min (females (N=7)): 0.19 ng/mL; Relative composition of PFAS in serum, molar concentration basis: 0.4%; Relative composition of PFAS in serum, weight basis: 0.3%; Initial serum PFAS level, Max (males (N=19)): 1.1 ng/mL; Initial serum PFAS level, Min (males (N=19)): 0.16 ng/mL; Initial serum PFAS level, median (males (N=19)): 0.42 ng/mL; Serum concentration, molar basis: 0.0012; Serum concentration, weight basis: 0.38
